Assay results from patent EP0837085A1, “POLYCARBONATE-BASE POLYMER, PRODUCTION PROCESS, RESIN COATING FLUID PREPARED THEREFROM, AND ELECTROPHOTOGRAPHIC PHOTORECEPTOR PREPARED THEREFROM” (IDEMITSU KOSAN COMPANY LIMITED, priority 1994, dated 1996).

Key:
[1] = pKa of the starting alcohol, in water at 25°C
Procedure: (§1) An ordinary acid, which is represented by HA, in water is in an equilibrium state as shown below. HA + H2 O ⇄ H3 O^+ (+ A)^- [formula] Equilibrium constant Keq is calculated as follows. Keq =([H3 O^+ (] [A)^- ])/([HA] [H2 O]) [formula] wherein [ ] represents the concentration of each chemical species.
(§2) In ordinary diluted solutions, the concentration of water [H2O] hardly changes and is constantly 55.5M, and the equilibrium constant Keq can be converted into another equation, to show the following acidity constant Ka. Ka =(([A)^- ] [H3 O^+ ])/([HA]) [formula]

Procedure for physchem: as §1, §2

SMILES	pKa [1]	pKa (physchem; water)	also measured
OCCCCCO [1,5-pentanediol, reference compound]	–	17	–
OCC(F)(F)F [2,2,2-trifluoroethanol]	–	11	–
OCC(F)(F)C(F)(F)C(F)(F)CO [2,2,3,3,4,4-hexafluoro-1,5-pentanediol]	–	–	pKa (physchem): 11

Now from value to molecule, other results behind:

pKa [1]	SMILES	pKa (physchem; water)	also measured
5	OC(C(F)(F)F)C(F)(F)F	–	–
11	OCC(F)(F)C(F)(F)C(F)(F)C(F)(F)CO [1H,1H,6H,6H-perfluoro-1,6-hexanediol]	–	–
